The values below are quoted from earlier work in patent US20100068280A1, “SUSTAINED RELEASE PHARMACEUTICAL DOSAGE FORM CONTAINING PHENYLEPHRINE” (priority 2006, published 2010).

For this data set the following is noted: in vivo.

In the case of `CN1CCC(=C2c3ccccc3CCc3cccnc32)CC1` [Azatadine], the elimination half-life is 9 to 12 h.
